Assay results from ChEMBL document CHEMBL5360639, “Cannabidiol Analogue CIAC001 for the Treatment of Morphine-Induced Addiction by Targeting PKM2” (J Med Chem, 2023).
Activity calls are given as the source filed them. The rule behind the calls is not given here.

Key:
[1] = Cytotoxicity against mouse BV-2 cells assessed as reduction in cell viability by crystal violet staining based assay; format: toxicity
BV-2 [2] = test: Anti-neuroinflammatory activity in mouse BV-2 cells assessed as inhibition of LPS-induced NO production incubated for 24 hrs by microplate reader analysis; format: functional, cell-based; details: BV-2, 24 h
[3] = Therapeutic index, ratio of IC50 for cytotoxicty against mouse BV-2 cells assessed as reduction in cell viability by crystal violet staining based assay to IC50 for nti-neuroinflammatory activity in mouse BV-2 cells assessed as inhibition of LPS-induced NO production; format: toxicity; details: read-out: Ratio IC50
[4] = Tmax in BALB/c mouse plasma at 10 mg/kg, po measured upto 4 hrs by mS-HPLC analysis; format: ADME, organism-based
[5] = Toxicity in BALB/c mouse assessed as rewarding effect at 20 mg/kg, ip measured after 6 days by CPP analysis; format: organism-based; details: in vivo, 144 h, time 6 day
[6] = Toxicity in BALB/c mouse assessed as effect on rubbing behavior at 20 mg/kg, ip measured administered once daily for 7 days and measured after 24 hrs by open field test; format: organism-based; details: in vivo, 192 h
[7] = molecular target: Pyruvate kinase PKM (Mus musculus) (UniProt P52480); test: Competitive inhibition of CIAC001-P2 probe binding to PKM2 in mouse BV-2 cells at 20 uM pretreated for 2 hrs followed by UV light treatment and measured after 30 mins by silver staining based Streptavidin-pull down assay; format: cell-based; details: time 2.5 hrs
Chain of Pyruvate kinase PKM (Mus musculus) (P52480 whole entry): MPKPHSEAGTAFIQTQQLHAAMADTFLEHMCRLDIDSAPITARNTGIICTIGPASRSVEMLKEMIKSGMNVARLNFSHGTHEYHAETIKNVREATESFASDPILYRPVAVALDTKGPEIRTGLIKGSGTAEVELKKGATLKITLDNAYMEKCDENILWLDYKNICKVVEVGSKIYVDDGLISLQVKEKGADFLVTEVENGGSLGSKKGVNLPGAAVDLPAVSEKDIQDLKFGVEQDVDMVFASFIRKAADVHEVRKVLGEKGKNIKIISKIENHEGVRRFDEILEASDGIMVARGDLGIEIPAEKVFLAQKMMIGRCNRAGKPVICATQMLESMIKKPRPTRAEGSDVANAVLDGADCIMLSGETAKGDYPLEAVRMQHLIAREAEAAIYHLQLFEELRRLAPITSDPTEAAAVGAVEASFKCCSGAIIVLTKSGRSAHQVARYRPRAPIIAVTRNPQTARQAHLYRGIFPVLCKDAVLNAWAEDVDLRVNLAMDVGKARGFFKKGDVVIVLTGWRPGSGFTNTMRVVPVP

BV-2 [8] = test: Anti-neuroinflammatory activity in LPS-induced mouse BV-2 cells assessed as reduction in iNOS mRNA expression at 10 uM incubated for 24 hrs by qRT-PCR analysis; format: functional, cell-based
BV-2 [9] = test: Anti-neuroinflammatory activity in LPS-induced mouse BV-2 cells assessed as formation of amoeboid-shaped cells at 10 uM incubated for 24 hrs by inverted microscopic analysis; format: functional, cell-based
BV-2 [10] = test: Inhibition of LPS-induced LDHA mRNA overexpression in mouse BV-2 cells at 10 uM incubated for 6 hrs; format: functional, cell-based
Mus musculus [11] = test: Anti-neuroinflammatory activity in morphine-induced BALB/c mouse assessed as inhibition of IL-1beta expression in VTA region 0.2 mg/kg, ip; format: functional, organism-based
[12] = Tmax in BALB/c mouse brain at 10 mg/kg, po measured upto 4 hrs by mS-HPLC analysis; format: ADME, organism-based
[13] = Toxicity in BALB/c mouse assessed as effect on respiratory rate at 20 mg/kg, ip measured on day 2 and 5; format: organism-based; details: in vivo, 120 h, time 5 day
BV-2 [14] = test: Inhibition of LPS-induced LDH release in mouse BV-2 cells at 10 uM incubated for 6 hrs; format: functional, cell-based
[15] = molecular target: Pyruvate kinase PKM (Mus musculus) (UniProt P52480); test: Binding affinity to PKM2 in mouse BV-2 cells assessed as thermal stabilization by measuring change in melting temperature incubated for 2 hrs by Western blot analysis; format: cell-based
BV-2 [16] = test: Anti-neuroinflammatory activity in LPS-induced mouse BV-2 cells assessed as reduction in […] mRNA expression at 10 uM incubated for 24 hrs by qRT-PCR analysis; format: functional, cell-based
[17] = molecular target: Pyruvate kinase PKM (Mus musculus) (UniProt P52480); test: Activation of PKM2 in mouse BV-2 cells assessed as increase in ATP level at 10 uM measured for 6 hrs; format: cell-based; details: filed as activator
BV-2 [18] = test: Anti-neuroinflammatory activity in LPS-induced mouse BV-2 cells assessed as reduction in […] mRNA expression by qRT-PCR analysis; format: functional, cell-based; details: dose 1-10 µM
[19] = molecular target: Pyruvate kinase PKM (Mus musculus) (UniProt P52480); test: Binding affinity to PKM1 in mouse BV-2 cells at 20 uM by Western blot analysis; format: cell-based
BV-2 [20] = test: Inhibition of LPS-induced PKM2 tetramer in mouse BV-2 cells at 10 uM; format: functional, cell-based
Mus musculus [21] = test: Inhibition of morphine-induced Hif-1alpha overexpression in BALB/c mouse at 0.2 mg/kg, ip measured for 7 days; format: functional, organism-based; details: time 7.0 day
[22] = Toxicity in BALB/c mouse assessed as assessed as effect on body weight at 20 mg/kg, ip measured administered once daily for 7 days and; format: organism-based; details: in vivo, 168 h, time 7 day
[23] = AUC (0 to t) in BALB/c mouse at 10 mg/kg, po measured upto 4 hrs by mS-HPLC analysis; format: ADME, organism-based; details: in vivo
Mus musculus [24] = test: Anti-neuroinflammatory activity in morphine-induced BALB/c mouse assessed as inhibition of Iba1 expression in mPFC region 0.2 mg/kg, ip; format: functional, organism-based
[25] = Cmax in BALB/c mouse at 10 mg/kg, po measured upto 4 hrs by mS-HPLC analysis; format: ADME, organism-based; parameters: time < 4 hrs, dose 10 mg/kg, route po; details: in vivo
[26] = Toxicity in BALB/c mouse assessed as effect on grooming behavior at 20 mg/kg, ip measured administered once daily for 7 days and measured after 24 hrs by open field test; format: organism-based; details: in vivo, 192 h
Mus musculus [27] = test: Anti-neuroinflammatory activity in morphine-induced BALB/c mouse assessed as inhibition of IL-1beta expression in NAc region 0.2 mg/kg, ip; format: functional, organism-based
BV-2 [28] = test: Inhibition of LPS-induced PKM2 monomer in mouse BV-2 cells at 10 uM; format: functional, cell-based
[29] = molecular target: Pyruvate kinase PKM (Mus musculus) (UniProt P52480); test: Binding affinity to PKM2 in mouse BV-2 cells at 20 uM by Western blot analysis; format: cell-based
Mus musculus [30] = test: Anti-neuroinflammatory activity in morphine-induced BALB/c mouse assessed as inhibition of behavioral sensitization at 0.2 mg/kg, ip administered once daily for 7 days; format: functional, organism-based; details: time 7.0 day
Mus musculus [31] = test: Anti-neuroinflammatory activity in morphine-induced BALB/c mouse assessed as decrease in conditioned place preference behavior 0.2 mg/kg, ip pretreated for 6 days followed by morphine induction and measured on days 5 to 9 days; format: functional, organism-based; details: time 11-15 day
[32] = molecular target: Cannabinoid receptor (Homo sapiens) (UniProt P34972+P21554); test: Agonist activity at CB1/CB2 (unknown origin) receptor expressed in HEK293 cells assessed as inhibition of forskolin-stimulated cAMP accumulation incubated for 2 hrs by microplate reader analysis; format: functional, cell-based; details: filed as agonist
Chain of Cannabinoid receptor (Homo sapiens) (P21554 whole entry, looked up): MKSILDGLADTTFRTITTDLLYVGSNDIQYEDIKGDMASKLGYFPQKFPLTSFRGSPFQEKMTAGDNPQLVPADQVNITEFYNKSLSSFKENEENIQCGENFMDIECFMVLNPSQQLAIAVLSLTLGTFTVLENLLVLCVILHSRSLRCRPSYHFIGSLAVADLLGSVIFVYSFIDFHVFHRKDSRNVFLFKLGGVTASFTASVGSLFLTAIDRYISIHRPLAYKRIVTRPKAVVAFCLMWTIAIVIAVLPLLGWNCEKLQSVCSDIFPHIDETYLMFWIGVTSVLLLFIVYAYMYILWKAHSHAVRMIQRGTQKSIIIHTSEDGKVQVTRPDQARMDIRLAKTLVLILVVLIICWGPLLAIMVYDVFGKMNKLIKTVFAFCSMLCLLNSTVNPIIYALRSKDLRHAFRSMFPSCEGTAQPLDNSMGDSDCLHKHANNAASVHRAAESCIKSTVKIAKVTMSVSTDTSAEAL
Chain of Cannabinoid receptor (Homo sapiens) (P34972 whole entry, looked up): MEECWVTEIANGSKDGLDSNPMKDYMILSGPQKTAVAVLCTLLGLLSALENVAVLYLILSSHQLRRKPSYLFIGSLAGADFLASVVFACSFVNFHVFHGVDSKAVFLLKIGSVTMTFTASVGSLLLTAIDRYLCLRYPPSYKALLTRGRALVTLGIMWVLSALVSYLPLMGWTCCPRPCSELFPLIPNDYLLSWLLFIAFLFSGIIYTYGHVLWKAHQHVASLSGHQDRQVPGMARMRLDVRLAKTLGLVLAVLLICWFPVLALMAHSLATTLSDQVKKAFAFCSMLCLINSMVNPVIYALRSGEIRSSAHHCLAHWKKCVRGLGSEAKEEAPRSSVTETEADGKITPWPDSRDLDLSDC

[33] = MRT in BALB/c mouse at 10 mg/kg, po measured upto 4 hrs by mS-HPLC analysis; format: ADME, organism-based; details: in vivo
BV-2 [34] = test: Anti-neuroinflammatory activity in LPS-induced mouse BV-2 cells assessed as reduction in IL-1beta mRNA expression at 10 uM incubated for 24 hrs by qRT-PCR analysis; format: functional, cell-based
[35] = molecular target: Pyruvate kinase PKM (Mus musculus) (UniProt P52480); test: Competitive inhibition of CIAC001-P1 probe binding to PKM2 in mouse BV-2 cells at 20 uM pretreated for 2 hrs followed by UV light treatment and measured after 30 mins by silver staining based Streptavidin-pull down assay; format: cell-based; details: time 2.5 hrs
Mus musculus [36] = test: Anti-neuroinflammatory activity in morphine-induced BALB/c mouse assessed as inhibition of IL-1beta expression in mPFC region 0.2 mg/kg, ip; format: functional, organism-based
[37] = Toxicity in BALB/c mouse assessed as cognitive impairment by measuring time spent on new arm at 20 mg/kg, ip administered once daily for 3 days and measured after 45 mins by Y maze test; format: organism-based; details: in vivo, 72.75 h, time 4365 min
Pyruvate kinase PKM = Pyruvate kinase PKM (Mus musculus, UniProt P52480); test: Binding affinity to PKM2 in mouse BV-2 cells by Western blot analysis; format: cell-based
Chain of Pyruvate kinase PKM (P52480 whole entry): as the sequence (P52480 whole entry) above

[38] = Ratio of drug concentration in blood to plasma in BALB/c mouse at 10 mg/kg, po measured at 3 hrs; format: ADME, organism-based; details: in vivo
BV-2 [39] = test: Anti-neuroinflammatory activity in LPS-induced mouse BV-2 cells assessed as reduction in TNF-alpha mRNA expression by qRT-PCR analysis; format: functional, cell-based; details: dose 1-10 µM
[40] = Half life in BALB/c mouse at 10 mg/kg, po measured upto 4 hrs by mS-HPLC analysis; format: ADME, organism-based; details: in vivo
Mus musculus [41] = test: Anti-neuroinflammatory activity in morphine-induced BALB/c mouse assessed as […] in locomotor activity 0.2 mg/kg, ip administered once daily for 7 days and measured after 60 mins; format: functional, organism-based; details: time 169.0 hrs
BV-2 [42] = test: Anti-neuroinflammatory activity in LPS-induced mouse BV-2 cells assessed as reduction in IL-6 mRNA expression by qRT-PCR analysis; format: functional, cell-based; details: dose 1-10 µM
BV-2 [43] = test: Inhibition of LPS-induced nuclear translocation in mouse BV-2 cells incubated for 6 hrs by Western blot analysis; format: functional, cell-based
[44] = Toxicity in BALB/c mouse assessed as effect on locomotor activity at 20 mg/kg, ip measured administered once daily for 7 days and measured after 24 hrs by open field test; format: organism-based; details: in vivo, 192 h
Mus musculus [45] = test: (§1) Anti-neuroinflammatory activity in naloxone precipitated morphine-induced ip dosed BALB/c mouse assessed as reduction in naloxone precipitated withdrawal jumps administered with morphine 3 times daily for 3 days and on day 4 for 3 hrs prior to compound addition for 30 mins before naloxone addition and measured after 15 mins; format: functional, organism-based; details: dose 0.2-20 µg/kg, time 45.0 min
BV-2 [46] = test: Anti-neuroinflammatory activity in LPS-induced mouse BV-2 cells assessed as reduction in IL-1beta mRNA expression at 10 uM by qRT-PCR analysis; format: functional, cell-based
Mus musculus [47] = test: as §1, with “morphine-induced” for “morphine-induced ip dosed”, “jumps at 0.2 microg/kg, ip” for “jumps”; format: functional, organism-based; details: dose 0.2 µg/kg, time 45.0 min
BV-2 [48] = test: Anti-neuroinflammatory activity in LPS-induced mouse BV-2 cells assessed as reduction in TNF-alpha mRNA expression at 1 to 10 uM by qRT-PCR analysis; format: functional, cell-based; details: dose 1-10 µM
BV-2 [49] = test: Anti-neuroinflammatory activity in LPS-induced mouse BV-2 cells assessed as reduction in IL-6 mRNA expression at 1 to 10 uM by qRT-PCR analysis; format: functional, cell-based; details: dose 1-10 µM

C#CCOc1cc(CCCCC)cc(OCC#C)c1[C@@H]1C=C(C)CC[C@H]1C(=C)C
IC50 [1]: > 200 µM
IC50 (BV-2 [2]): 200 µM

C=C(C)[C@@H]1CCC(C)=C[C@H]1c1c(O)cc(CCCC)cc1O
IC50 [1]: 11.1 µM
selectivity ratio [3]: 2.2
IC50 (BV-2 [2]): 5 µM

C=C(C)[C@@H]1CCC(C)=C[C@H]1c1c(O)cc(C(C)n2nccn2)cc1O (stereo not given in full)
Tmax [4]: 18 min
Activity [5]: Non-Toxic
Activity [6]: Non-Toxic
IC50 [1]: 57.8 µM
inhibition [7]: Active
Activity (BV-2 [8]): Active
Activity (BV-2 [9]): Active
inhibition (BV-2 [10]): Active
Activity (Mus musculus [11]): Active
Tmax [12]: 30 min
selectivity ratio [3]: 23.1
Activity [13]: Non-Toxic
inhibition (BV-2 [14]): Active
ΔTm [15]: 3.9 °C
Activity (BV-2 [16]): Active
Activity [17]: Active
Activity (BV-2 [18]): Dose-Dependent Effect
Activity [19]: Active
inhibition (BV-2 [20]): Active
inhibition (Mus musculus [21]): Active
Activity [22]: Non-Toxic
AUCt [23]: 172.8 ng·h/g
Activity (Mus musculus [24]): Active
Cmax [25]: 175 ng/g
Activity [26]: Non-Toxic
Activity (Mus musculus [27]): Active
inhibition (BV-2 [28]): Active
Activity [29]: Active
Activity (Mus musculus [30]): Active
Activity (Mus musculus [31]): Active
Activity [32]: Active
MRT [33]: 54 min
Activity (BV-2 [34]): Active
IC50 (BV-2 [2]): 2.5 µM
inhibition [35]: Active
Activity (Mus musculus [36]): Active
Activity [37]: Non-Toxic
Kd (Pyruvate kinase PKM): 2.2 µM
Ratio [38]: < 200%
Activity (BV-2 [39]): Dose-Dependent Effect
half-life [40]: 48 min
Activity (Mus musculus [41]): Active
Activity (BV-2 [42]): Dose-Dependent Effect
inhibition (BV-2 [43]): Active
Activity [44]: Non-Toxic
Activity (Mus musculus [45]): Dose-Dependent Effect

C=C(C)[C@@H]1CCC(C)=C[C@H]1c1c(O)cc(C(C)n2ccnc2)cc1O (stereo not given in full)
IC50 [1]: 32.6 µM
selectivity ratio [3]: 7.4
IC50 (BV-2 [2]): 4.4 µM

C=C(C)[C@@H]1CCC(C)=C[C@H]1c1c(OC)cc(CCCCC)cc1OC
IC50 [1]: > 200 µM
IC50 (BV-2 [2]): > 20 µM

C=C(C)[C@@H]1CCC(C)=C[C@H]1c1c(O)cc(CCCCC)cc1O [CANNABIDIOL]
IC50 [1]: 8.5 µM
Activity (BV-2 [46]): inactive
selectivity ratio [3]: 0.7
Activity (Mus musculus [47]): inactive
AUCt [23]: 66.7 ng·h/g
Cmax [25]: 98.1 ng/g
Activity (Mus musculus [30]): inactive
Activity (BV-2 [48]): inactive
MRT [33]: 42 min
IC50 (BV-2 [2]): 12.3 µM
Activity (BV-2 [49]): inactive
Ratio [38]: < 100%
half-life [40]: 30 min
Activity (Mus musculus [41]): inactive
